# Laboratory results taken from patent US10168342B2, “Lipid probes and uses thereof” (THE SCRIPPS RESEARCH INSTITUTE, priority 2015, dated 2019).
# Like-named read-outs stand apart in the source and are kept apart here.
# Key:
# [1] = target: T1, AEA-DA lipid probe targets in Neuro2a cells (Mus musculus, UniProt Q62465); settings: for SILAC ratio, VAT1 (Q99536): Neuro2a cells, AEA-DA probe
# T1 sequence (Q62465 1-406): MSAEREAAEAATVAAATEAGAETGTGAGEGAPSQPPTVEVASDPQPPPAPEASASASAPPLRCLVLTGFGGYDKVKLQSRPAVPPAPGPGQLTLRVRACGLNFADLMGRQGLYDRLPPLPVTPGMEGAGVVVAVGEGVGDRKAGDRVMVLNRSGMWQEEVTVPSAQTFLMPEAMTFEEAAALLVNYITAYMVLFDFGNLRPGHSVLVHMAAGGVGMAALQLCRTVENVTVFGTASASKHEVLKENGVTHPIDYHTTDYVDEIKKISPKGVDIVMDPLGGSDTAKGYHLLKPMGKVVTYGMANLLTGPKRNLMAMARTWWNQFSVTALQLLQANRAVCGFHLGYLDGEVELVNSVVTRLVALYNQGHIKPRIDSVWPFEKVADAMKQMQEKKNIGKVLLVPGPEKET
# [2] = target: T2, AEA-DA lipid probe targets in Neuro2a cells (Mus musculus, UniProt Q925I1)
# T2 sequence (Q925I1 1-591): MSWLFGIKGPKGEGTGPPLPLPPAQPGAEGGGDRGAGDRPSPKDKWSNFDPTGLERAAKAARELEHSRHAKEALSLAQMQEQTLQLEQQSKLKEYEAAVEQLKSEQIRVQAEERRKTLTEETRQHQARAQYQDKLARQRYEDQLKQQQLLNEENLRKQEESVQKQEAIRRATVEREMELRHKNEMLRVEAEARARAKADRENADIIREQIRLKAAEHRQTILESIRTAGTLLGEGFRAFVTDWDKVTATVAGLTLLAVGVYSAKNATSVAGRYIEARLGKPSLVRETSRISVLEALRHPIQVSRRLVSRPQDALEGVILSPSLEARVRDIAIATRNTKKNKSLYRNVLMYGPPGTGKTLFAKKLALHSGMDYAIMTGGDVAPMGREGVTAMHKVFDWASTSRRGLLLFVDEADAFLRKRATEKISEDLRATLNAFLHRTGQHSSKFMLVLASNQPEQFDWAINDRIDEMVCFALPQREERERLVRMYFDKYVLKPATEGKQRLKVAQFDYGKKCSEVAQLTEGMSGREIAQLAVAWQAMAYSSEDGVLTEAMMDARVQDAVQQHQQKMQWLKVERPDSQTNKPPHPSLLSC
# [3] = target: T3, AEA-DA lipid probe targets in Neuro2a cells (Mus musculus, UniProt P37040)
# T3 sequence (P37040 1-678): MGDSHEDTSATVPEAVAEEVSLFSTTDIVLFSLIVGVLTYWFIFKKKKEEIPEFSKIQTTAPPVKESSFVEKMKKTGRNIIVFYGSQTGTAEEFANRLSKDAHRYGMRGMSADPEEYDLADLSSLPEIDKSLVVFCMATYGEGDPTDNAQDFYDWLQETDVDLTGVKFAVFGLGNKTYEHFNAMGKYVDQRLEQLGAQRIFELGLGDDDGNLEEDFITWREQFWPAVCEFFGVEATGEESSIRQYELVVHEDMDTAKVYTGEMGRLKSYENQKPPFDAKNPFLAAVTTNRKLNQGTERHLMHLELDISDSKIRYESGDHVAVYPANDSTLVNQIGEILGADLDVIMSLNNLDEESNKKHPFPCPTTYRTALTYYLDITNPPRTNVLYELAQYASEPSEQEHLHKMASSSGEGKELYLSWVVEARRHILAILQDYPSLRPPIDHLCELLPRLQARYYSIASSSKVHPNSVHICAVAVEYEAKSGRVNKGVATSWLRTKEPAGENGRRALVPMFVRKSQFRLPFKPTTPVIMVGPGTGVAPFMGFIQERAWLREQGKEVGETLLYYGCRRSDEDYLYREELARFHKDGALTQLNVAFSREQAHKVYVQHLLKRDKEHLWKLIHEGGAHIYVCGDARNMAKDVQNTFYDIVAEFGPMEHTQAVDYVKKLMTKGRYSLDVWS
# [4] = target: T4, AEA-DA lipid probe targets in Neuro2a cells (Mus musculus, UniProt Q8BSF4)
# T4 sequence (Q8BSF4 50-406): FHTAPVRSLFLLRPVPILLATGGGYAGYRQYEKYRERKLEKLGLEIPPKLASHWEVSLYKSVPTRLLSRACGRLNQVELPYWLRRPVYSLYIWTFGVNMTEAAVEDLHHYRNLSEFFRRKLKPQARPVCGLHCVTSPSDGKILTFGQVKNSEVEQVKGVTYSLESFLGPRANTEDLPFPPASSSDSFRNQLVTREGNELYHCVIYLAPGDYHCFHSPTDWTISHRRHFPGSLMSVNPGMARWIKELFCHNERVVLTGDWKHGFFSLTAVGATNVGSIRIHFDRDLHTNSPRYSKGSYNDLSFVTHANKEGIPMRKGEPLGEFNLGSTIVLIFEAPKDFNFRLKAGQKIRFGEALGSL
# [5] = target: T5, AEA-DA lipid probe targets in Neuro2a cells (Mus musculus, UniProt Q07646)
# T5 sequence (Q07646 1-335): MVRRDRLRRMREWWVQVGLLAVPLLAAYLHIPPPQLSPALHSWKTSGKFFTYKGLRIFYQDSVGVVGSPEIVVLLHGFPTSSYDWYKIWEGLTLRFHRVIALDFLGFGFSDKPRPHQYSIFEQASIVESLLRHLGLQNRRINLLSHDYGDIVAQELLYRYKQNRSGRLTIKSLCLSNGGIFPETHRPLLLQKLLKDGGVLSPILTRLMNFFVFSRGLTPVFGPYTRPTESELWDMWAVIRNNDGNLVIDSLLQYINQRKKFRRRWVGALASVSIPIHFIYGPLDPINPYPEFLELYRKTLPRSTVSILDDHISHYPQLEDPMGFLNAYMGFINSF
# [6] = target: T6, AEA-DA lipid probe targets in Neuro2a cells (Mus musculus, UniProt Q9CPQ3); settings: for SILAC ratio, TOMM22 (Q9CPQ3): Neuro2a cells, AEA-DA probe
# T6 sequence (Q9CPQ3 1-142): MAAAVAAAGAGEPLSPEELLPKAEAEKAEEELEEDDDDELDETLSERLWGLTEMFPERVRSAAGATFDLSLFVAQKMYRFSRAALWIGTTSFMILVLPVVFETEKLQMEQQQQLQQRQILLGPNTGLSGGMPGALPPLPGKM
# [7] = target: AEA-DA lipid probe targets in Neuro2a cells (Mus musculus, UniProt Q9ET22)
# Chain of AEA-DA lipid probe targets in Neuro2a cells (Mus musculus, UniProt Q9ET22) (Q9ET22 37-506): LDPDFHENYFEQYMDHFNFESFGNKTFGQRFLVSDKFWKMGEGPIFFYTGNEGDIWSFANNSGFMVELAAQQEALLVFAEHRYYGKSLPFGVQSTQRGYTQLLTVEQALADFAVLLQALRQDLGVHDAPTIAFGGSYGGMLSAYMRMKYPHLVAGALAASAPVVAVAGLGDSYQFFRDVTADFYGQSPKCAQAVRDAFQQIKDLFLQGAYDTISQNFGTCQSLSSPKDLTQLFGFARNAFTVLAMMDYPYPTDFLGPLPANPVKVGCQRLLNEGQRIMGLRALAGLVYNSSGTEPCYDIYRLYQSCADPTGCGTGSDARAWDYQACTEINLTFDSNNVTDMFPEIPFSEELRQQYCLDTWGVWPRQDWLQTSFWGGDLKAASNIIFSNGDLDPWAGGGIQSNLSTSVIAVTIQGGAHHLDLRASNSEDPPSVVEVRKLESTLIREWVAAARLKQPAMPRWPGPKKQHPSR
SMILES,"SILAC ratio, VAT1 (Q99536) ([1]; competitor 25 μM)",SILAC ratio Vat1 ([1]; competitor 25 μM),SILAC ratio Atad3 ([2]; competitor 25 μM),"SILAC ratio, Por ([3]; competitor 25 μM)",SILAC ratio Mest ([5]; competitor 25 μM),"SILAC ratio, TOMM22 (Q9CPQ3) ([6]; competitor 25 μM)","SILAC ratio, Tomm22 ([6]; competitor 25 μM)",SILAC ratio Dpp7 ([7]; competitor 25 μM),"SILAC ratio, Pisd ([4]; competitor 25 μM)",other results
"CCCCC/C=C\C/C=C\C/C=C\C/C=C\CCCC(=O)NCCO [AEA, anandamide, reference compound]",–,–,–,–,–,–,–,–,–,"SILAC ratio, VAT1 (Q99536) ([1]; competitor 200 μM): 1.6; SILAC ratio Vat1 ([1]; competitor 200 μM): 1.6; SILAC ratio Atad3 ([2]; competitor 200 μM): 1.5; SILAC ratio, Por ([3]; competitor 200 μM): 2.0; SILAC ratio, Pisd ([4]; competitor 200 μM): 1.8; SILAC ratio Mest ([5]; competitor 200 μM): 1.5; SILAC ratio, TOMM22 (Q9CPQ3) ([6]; competitor 200 μM): 1.4; SILAC ratio, Tomm22 ([6]; competitor 200 μM): 1.4; SILAC ratio Dpp7 ([7]; competitor 200 μM): 1.4"
"O=C(/C=C/c1cccnc1)NCCCCC1CCN(C(=O)c2ccccc2)CC1 [FK-866, reference compound]",1.9,1.9,1.2,1.2,1.2,1.1,1.1,1.0,–,–
"CN1CCN(C(=O)c2c(-c3ccccc3)c3cc([N+](=O)[O-])ccc3n2C)CC1 [KML110, (1-Methyl-5-nitro-3-phenyl-1H-indol-2-yl)(4-methylpiperazin-1-yl)methanone]",–,1.4,1.2,1.6,1.3,–,1.3,1.5,1.4,–
"CN1CCN(C(=O)c2[nH]c3ccc([N+](=O)[O-])cc3c2-c2ccccc2)CC1 [MJN228, (4-Methylpiperazin-1-yl)(5-nitro-3-phenyl-1H-indol-2-yl)methanone]",–,1.3,1.4,1.8,1.4,1.2,1.2,0.7,1.4,"SILAC ratio Vat1 ([1]; competitor 10 μM): 1.2; SILAC ratio Vat1 ([1]; competitor 50 μM): 1.0; SILAC ratio Vat1 ([1]; competitor 100 μM): 1.2; SILAC ratio Atad3 ([2]; competitor 10 μM): 1.1; SILAC ratio Atad3 ([2]; competitor 50 μM): 1.3; SILAC ratio Atad3 ([2]; competitor 100 μM): 1.4; SILAC ratio, Por ([3]; competitor 10 μM): 1.4; SILAC ratio, Por ([3]; competitor 50 μM): 2.0; SILAC ratio, Por ([3]; competitor 100 μM): 3.1; SILAC ratio Mest ([5]; competitor 10 μM): 1.2; SILAC ratio Mest ([5]; competitor 50 μM): 1.3; SILAC ratio Mest ([5]; competitor 100 μM): 1.6; SILAC ratio, Tomm22 ([6]; competitor 10 μM): 1.1; SILAC ratio, Tomm22 ([6]; competitor 50 μM): 1.2; SILAC ratio, Tomm22 ([6]; competitor 100 μM): 1.8; SILAC ratio Dpp7 ([7]; competitor 10 μM): 1.0; SILAC ratio Dpp7 ([7]; competitor 50 μM): 1.0; SILAC ratio Dpp7 ([7]; competitor 100 μM): 0.7"
"C=CCN(C)CCCCCCOc1ccc(C(=O)c2ccc(Br)cc2)c(F)c1 [Ro 48-8071, reference compound]",1.2,1.2,1.0,1.5,1.2,1.0,1.0,0.3,1.3,–
